The text below walks through data of ChEMBL document CHEMBL1122370 (J Med Chem, 1983).

Where “and” joins values, the source holds several entries; their conditions need not be identical. Equal entries are not always repeated.

Assay [1] relates to L1210. In words: In vivo antitumor activity against L1210 leukemia in 18 mice measured as T/C values; T/C = 18/9. The class given is functional, Mus musculus.
Assay [2] concerns Mus musculus. Briefly: Average weight of the mouse after treating with 30 mg/kg dose for 1 day. The class given is functional.
The subject of assay [3] is L1210. Briefly: In vivo antitumor activity against L1210 leukemia in 12 mice measured as T/C values; T/C = 12/9. The class given is functional, Mus musculus.
Assay [4] has as its system L1210. In words: In vivo antitumor activity against L1210 leukemia in 5 mice measured as median survival range at 30 mg/kg; Value ranges from(17-22). The class given is functional, Mus musculus.
The subject of assay [5] is Mus musculus. In words: Average weight of the mouse after treating with 30 mg/kg dose for 7 day. The class given is functional.
In assay [6] the test system is L1210. In words: In vivo antitumor activity against L1210 leukemia in 5 mice measured as Increased life span at 30 mg/kg. The class given is functional. Conditions: Mus musculus.
The subject of assay [7] is Mus musculus. Briefly: Average weight of the mouse after treating with 15 mg/kg dose for 1 day. The class given is functional.
The subject of assay [8] is Mus musculus. In words: Average weight change in mouse after treating with 15 mg/kg dose for 7 days. The class given is functional.
The subject of assay [9] is L1210. Briefly: In vivo anti tumor activity against L1210 leukemia in 5 mice measured as Increased life span at 15 mg/kg. Conditions: Mus musculus. The class given is functional.
The subject of assay [10] is L1210. In words: In vivo antitumor activity against L1210 leukemia in 5 mice measured as median survival range at 15 mg/kg; Value ranges from (12-14). The class given is functional, Mus musculus.
Assay [11] concerns Mus musculus. Briefly: Average weight change in mouse after treating with 7.5 mg/kg dose for 7 days. The class given is functional.
For assay [12], the system named is L1210. In words: In vivo antitumor activity against L1210 leukemia in 5 mice measured as median survival range at 7.5 mg/kg; Value ranges from (10-14). The class given is functional, Mus musculus.
Assay [13] has as its system L1210. Briefly: In vivo antitumor activity against L1210 leukemia in 5 mice measured as median survival range at 15 mg/kg; Value ranges from (14-18). The class given is functional, Mus musculus.
Assay [14] concerns Mus musculus. Briefly: Average weight of the mouse after treating with 7.5 mg/kg dose for 1 day. The class given is functional.
Assay [15] concerns Mus musculus. Briefly: In vivo antitumor activity against L1210 leukemia in 5 mice measured as weight change in 7 days(% weight). The class given is functional.
Assay [16] concerns L1210. Briefly: In vivo anti tumor activity against L1210 leukemia in 5 mice measured as Increased life span at 15 mg/kg. The class given is functional. The following applies: Mus musculus.
The test system of assay [17] is L1210. Briefly: In vivo anti tumor activity against L1210 leukemia in 5 mice measured as Increased life span at 7.5 mg/kg. The class given is functional. The following applies: Mus musculus.
Assay [18] has as its system Mus musculus. In words: Average weight of the mouse after treating with 15 mg/kg dose for 1 day. The class given is functional.
Assay [19] has as its system L1210. Briefly: In vivo antitumor activity against L1210 leukemia in 5 mice measured as Increased life span at 20 mg/kg. The class given is functional. The following applies: Mus musculus.
For assay [20], the system named is Mus musculus. In words: Average weight change in mouse after treating with 20 mg/kg dose for 7 days. Conditions: 20 mg/kg. Also on record: unit not given beside the values. The class given is functional.
The test system of assay [21] is Mus musculus. In words: Average weight of the mouse after treating with 20 mg/kg dose for 1 day. The class given is functional. Also on record: unit not given here.
The test system of assay [22] is L1210. Briefly: In vivo antitumor activity against L1210 leukemia in 12 mice measured as T/C values(days); T/C = 12/9. The class given is functional, Mus musculus.
Assay [23] has as its system L1210. Briefly: In vivo antitumor activity against L1210 leukemia in 5 mice measured as Increased life span at 10 mg/kg. The class given is functional. The following applies: Mus musculus.
Assay [24] deals with L1210. In words: In vivo antitumor activity against L1210 leukemia in 14 mice measured as T/C values; T/C = 14/9. The class given is functional, Mus musculus.
For assay [25], the system named is L1210. Briefly: In vivo antitumor activity against L1210 leukemia in 5 mice measured as median survival range at 20 mg/kg; Value ranges from (14-18). The class given is functional, Mus musculus.
In assay [26] the test system is L1210. In words: In vivo antitumor activity against L1210 leukemia in 5 mice measured as median survival range at 10 mg/kg; Value ranges from (10-15). The class given is functional, Mus musculus.
The subject of assay [27] is Mus musculus. Briefly: Average weight of the mouse after treating with 40 mg/kg dose for 7 days. The class given is functional. Further details: unit not given beside the values.
The test system of assay [28] is L1210. Briefly: In vivo antitumor activity against L1210 leukemia in 13 mice measured as T/C values(days); T/C = 13/9. The class given is functional, Mus musculus.
Assay [29] relates to L1210. In words: In vivo antitumor activity against L1210 leukemia in 18 mice measured as T/C values(days); T/C = 18/9. The class given is functional, Mus musculus.
Assay [30] has as its system Mus musculus. In words: Average weight of the mouse after treating with 40 mg/kg dose for 1 day. The class given is functional. Further details: unit not given here.
For assay [31], the system named is L1210. Briefly: In vivo antitumor activity against L1210 leukemia in 5 mice measured as median survival range at 40 mg/kg; Value ranges from(13-19). The class given is functional, Mus musculus.
Assay [32] concerns Mus musculus. In words: Average weight of the mouse after treating with 20 mg/kg dose for 7 days. The class given is functional. Also on record: unit not given beside the values.
In assay [33] the test system is L1210. In words: In vivo antitumor activity against L1210 leukemia in 5 mice measured as Increased life span at 80 mg/kg. The class given is functional. The following applies: Mus musculus.
Assay [34] deals with L1210. Briefly: In vivo antitumor activity against L1210 leukemia in 5 mice measured as median survival range at 80 mg/kg; Value ranges from(13-26). The class given is functional, Mus musculus.
Assay [35] relates to L1210. In words: In vivo antitumor activity against L1210 leukemia in 5 mice measured as median survival range at 20 mg/kg; Value ranges from(12-13). The class given is functional, Mus musculus.
In assay [36] the test system is L1210. In words: In vivo antitumor activity against L1210 leukemia in 5 mice measured as Increased life span at 40 mg/kg. The following applies: Mus musculus. The class given is functional.
Assay [37] deals with Mus musculus. In words: Average weight of the mouse after treating with 80 mg/kg dose for 1 day. Also on record: unit not given here. The class given is functional.
The test system of assay [38] is Mus musculus. In words: Average weight of the mouse after treating with 80 mg/kg dose for 7 days. The class given is functional. Also on record: unit not given beside the values.
Assay [39] concerns L1210. Briefly: In vivo antitumor activity against L1210 leukemia in 15 mice measured as T/C values(days); T/C = 15/9. The class given is functional, Mus musculus.
Assay [40] has as its system Mus musculus. In words: Average weight of the mouse after treating with 90 mg/kg dose for 7 days. The class given is functional.
In assay [41] the test system is L1210. Briefly: In vivo antitumor activity against L1210 leukemia in 18 mice measured as T/C values(days); T/C = 18/11. The class given is functional, Mus musculus.
For assay [42], the system named is L1210. In words: In vivo antitumor activity against L1210 leukemia in 5 mice measured as Increased life span at 90 mg/kg. The class given is functional. Conditions: Mus musculus.
In assay [43] the test system is L1210. In words: In vivo antitumor activity against L1210 leukemia in 5 mice measured as Increased life span at 45 mg/kg. The class given is functional. Conditions: Mus musculus.
Assay [44] relates to Mus musculus. Briefly: Average weight of the mouse after treating with 45 mg/kg dose for 1 day. The class given is functional.
In assay [45] the test system is L1210. In words: In vivo antitumor activity against L1210 leukemia in 5 mice measured as median survival range at 45 mg/kg; Value ranges from(14-19). The class given is functional, Mus musculus.
Assay [46] deals with Mus musculus. Briefly: Average weight of the mouse after treating with 90 mg/kg dose for 1 day. The class given is functional.
Assay [47] has as its system L1210. In words: In vivo antitumor activity against L1210 leukemia in 5 mice measured as median survival range at 90 mg/kg; Value ranges from(15-24). The class given is functional, Mus musculus.
Assay [48] has as its system Mus musculus. In words: Average weight of the mouse after treating with 45 mg/kg dose for 7 days. The class given is functional.
Assay [49] deals with L1210. Briefly: In vivo antitumor activity against L1210 leukemia in 20 mice measured as T/C values(days); T/C = 20/11. The class given is functional, Mus musculus.

As for `CN(Cc1cnc2nc(N)nc(N)c2n1)c1ccc(C(=O)NC(CCC(=O)OCc2ccccc2)C(=O)OCc2ccccc2)cc1` (stereo unspecified), the T/C in assay [1] and in [3] was 9 in each case. For the same molecule, the Average weight was found to be 25.6 in [2] and 25.8 in [7]. Moreover, the Range in [4] was 22; in assay [10] it was 14. In addition, the Weight change in [5] was determined as 1.6; in [8], 0.4. In assay [6], the ILS at 30 mg/kg was 100%. In assay [9], this molecule registered an ILS at 15 mg/kg of 33%.
Regarding `CCCCCCCCOC(=O)CCC(NC(=O)c1ccc(N(C)Cc2cnc3nc(N)nc(N)c3n2)cc1)C(=O)OCCCCCCCC` (stereo unspecified), the Weight change in [11] turned out to be 0.4; in [15], 0.8. Also, the Range is 14 in [12] and 18 in assay [13]. Moreover, the Average weight in assay [14] is 26.4; in [18], 25.2. Moreover, the ILS at 15 mg/kg in [16] was determined as 66%. Also, the increase in lifespan (ILS) at 7.5 mg/kg in [17] came to 44%.
In turn, `CCCCCOC(=O)CCC(NC(=O)c1ccc(N(C)Cc2cnc3nc(N)nc(N)c3n2)cc1)C(=O)OCCCCC` (stereo unspecified) came in with an ILS at 20 mg/kg in assay [19] of 55%. In [20], the Weight change was 0.6 and 0.4. Further, the Average weight in [21] (20 mg/kg) is 21.5 and 20.8. For the same molecule, the T/C in assay [22] turned out to be 12; in [24] it was 14. The increase in life span (ILS) at 10 mg/kg in assay [23] was determined as 33%. For the same molecule, the results for the Range in [25] and in assay [26] were 18 and 15, respectively.
As for `CC(C)CCOC(=O)CCC(NC(=O)c1cc(Cl)c(N(C)Cc2cnc3nc(N)nc(N)c3n2)c(Cl)c1)C(=O)OCCC(C)C` (stereo unspecified), the Weight change in [27] is listed as 0.1; in assay [32], 2.7; in [38] it was 1. The same molecule displayed an increase in life span (ILS) at 20 mg/kg in assay [19] of 44%. Besides, the T/C in assay [28], in assay [29] and in assay [39] was 9 each time. The values for the Average weight in assay [30], in [21] and in [37] were 21.2, 22.1 and 20.8, respectively. Moreover, the Range was found to be 19 in [31], 26 in assay [34] and 13 in [35]. The ILS at 80 mg/kg in [33] came out at 100%. In addition, the ILS at 40 mg/kg in assay [36] was 67%.
Take `CCCCOC(=O)CCC(NC(=O)c1cc(Cl)c(N(C)Cc2cnc3nc(N)nc(N)c3n2)c(Cl)c1)C(=O)OCCCC` (stereo unspecified): the Weight change in assay [40] was 3.8; in [48] it was 1. Besides, the T/C in assay [41] and in assay [49] was 11 in each case. For the same molecule, the ILS at 90 mg/kg in [42] stood at 82%. Besides, the ILS at 45 mg/kg in assay [43] was determined as 64%. Further, the Average weight in [44] is listed as 25; in [46] it was 27.8. Also, the Range in [45] is recorded as 19; in assay [47], 24.

Broadly, the ILS is the gain in survival time of treated over control animals, in per cent.
